Measurements from patent US9102620B2, “Deuterated N-ethyl-N-phenyl-1,2-dihydro-4-hydroxy-5-chloro-1-methyl-2-oxoquinoline-3-carboxamide, salts and uses thereof” (TEVA PHARMACEUTICAL INDUSTRIES, LTD., priority 2010, dated 2015).
Like-named read-outs stand apart in the source and are kept apart here.

Columns and labels:
CYP3A4 mRNA = conditions: human, 3 days; for mRNA Percent positive control, CYP3A4: hepatocytes
Method: (§1) After treatment, the cells were incubated in situ with marker substrates for the analysis of phenacetin O-dealkylation (marker for CYP1A2) and midazolam 1′-hydroxylation (marker for CYP3A4/5) by LC/MS/MS.
(§2) Approximately 24 hours after the last treatment, hepatocytes were lysed in TRIzol reagent after the in situ marker substrate incubations, and cell lysates were stored at −75±5° C. For human hepatocyte preparation H971, media from six wells per treatment group was aspirated, and approximately 132 μL TRIzol were added to each well. The cell lysates were mixed by repeated pipetting. Total RNA was isolated from the cell lysates using the TRIzol protocol (Invitrogen) and was purified using the RNeasy Mini Kit (Qiagen Inc.) according to SOP L6161.02. RNA quality and concentration were determined by measuring absorbance at 260 and 280 nm on a BioTek Synergy HT plate reader (BioTek Instruments, Inc.) with KC4 Signature software (version 3.4 Rev 21, BioTek Instruments, Inc.) according to SOP L6162.02. The analysis of RNA integrity was carried out with the RNA 6000 Nano Assay Kit on an Agilent 2100 Bioanalyzer (Agilent Technologies, Inc.) according to SOP L6162.02. Single-stranded cDNA was prepared from RNA with the RT Master Mix using the AB 7300 Real Time PCR system thermocycling program or AB 7900HT Fast Real Time PCR System thermocycling program (Applied Biosystems) according to SOP L6160.04. […] The RT Master Mix was added to each RNA sample to complete the components of the reaction. No template controls (NTCs) were included in the analysis. For the NTC reactions, RNase-free water was added in place of the RNA sample. The cDNA prepared samples were stored at −20±5° C. prior to analysis by qRT-PCR.
(§3) Quantitative RT-PCR was carried out according to SOP L6160.04 (XenoTech, LLC) and the Applied Biosystems protocol. Each PCR was performed in triplicate. A Primer Mix was prepared for each Gene Expression assay. A typical Primer Mix contained TaqMan Universal Master Mix (1×), Gene Expression Assay (1×, 900 nM forward and reverse primers) and RNase-free water. The Reaction Mix was prepared by adding the Primer Mix to cDNA. A percentage of samples (no less than 10%) included NACs. […] The relative quantity of the target cDNA compared with that of the control cDNA (GAPDH) was determined by the ΔΔCt method (Applied Biosystems User Bulletin #2). Relative quantification measures the change in mRNA expression in a test sample relative to that in a control sample (e.g., DMSO). This method assumes that the efficiency of the target amplification and the efficiency of the endogenous control amplification are approximately equal.
(§4) For qRT-PCR, data were processed using the Sequence Detection System (SDS) Software version 1.4, for Relative Quantification (Applied Biosystems). This software analyzes relative gene expression using the comparative Ct method (ΔΔCt), which relates the PCR signal of the target transcript to the PCR signal of the target in an untreated control. Both the treated sample and the untreated control signals are normalized to the endogenous control (GAPDH), for which expression is not affected by treatment and expression is constant throughout the tissue being tested. […] Calculations are as follows: ΔCt=Ct(target)−Ct(endogenous control) 1. ΔΔCt=ΔCt(treated sample)−ΔCt(untreated control) 2. Fold change in expression=2−ΔΔCt 3.
(§5) The level of mRNA expression relative to the positive control was calculated as follows: […]

CYP1A2 mRNA = conditions: human, 3 days; for mRNA Percent positive control, CYP1A2: hepatocytes
Method: as §1, §2, §3, §4, §5

CYP1A2 = conditions: human, 3 days; for Enzyme activity, Phenacetin O-dealkylation (CYP1A2) / Percent positive control, Phenacetin O-dealkylation (CYP1A2) activity: hepatocytes
Method: as §1
(§6) Incubations of hepatocytes with probe substrates were conducted in accordance with SOP L5041.02. Approximately 24 hours after the last treatment, spent media was aspirated from the wells, and each well was rinsed two times with pre-warmed (37±2° C.) fresh culture media. Media was aspirated from the wells and reactions were started by addition of 200 μL pre-warmed media containing the probe substrate to each well. […] At 30 minutes, an aliquot (150 μL) of the incubation mixture was removed and added to a well of a 96-well plate containing 300 μL of stop reagent (acetonitrile) and internal standard (Table 2). The mixtures were mixed thoroughly and allowed to sit for at least 15 minutes at 2-8° C. Samples were centrifuged at 2000×g for 10 minutes at 2-8° C., and supernatant fractions were analyzed by LC/MS/MS.
(§7) All analyses were performed with validated LC/MS/MS methods. The procedures used for the analysis of each metabolite followed the applicable LC/MS/MS analytical method SOPs and are summarized in Table 2. The MS equipment was either an ABI Sciex (Applied Biosystems/MDS SCIEX) API 4000 or API 3000 instrument with Shimadzu HPLC pumps and autosampler systems.
(§8) Individual rates of reaction from like treatment groups were averaged, and for those groups with n≧3, standard deviations were determined. Fold increases were determined by dividing the enzymatic rate for each treatment group by that of the vehicle control. Percent positive control was calculated with the following equation: […]

CYP3A4/5 = conditions: human, 3 days; for Enzyme activity, Midazolam 1′-hydroxylation (CYP3A4/5) / Percent positive control, Midazolam 1′-hydroxylation (CYP3A4/5) activity: hepatocytes
Method: as §1, §6, §7, §8

`[2H]C([2H])([2H])C([2H])([2H])N(C(=O)c1c(O)c2c(Cl)cccc2n(C)c1=O)c1ccccc1` [Compound 2, N-D5-ethyl-N-phenyl-1,2-dihydro-4-hydroxy-5-chloro-1-methyl-2-oxoquinoline-3-carboxamide] was tested, and the “mRNA Fold increase, CYP3A4” value (CYP3A4 mRNA; 0.01 μM) was 0.437 fold, the “mRNA Fold increase, CYP3A4” value (CYP3A4 mRNA; 0.05 μM) was 0.428 fold and the “mRNA Fold increase, CYP3A4” value (CYP3A4 mRNA; 0.1 μM) was 0.339 fold. The “mRNA Fold increase, CYP3A4” value (CYP3A4 mRNA; 1 μM) was 0.252 fold, the “mRNA Fold increase, CYP3A4” value (CYP3A4 mRNA; 10 μM) was 0.689 fold and the “mRNA Percent positive control, CYP3A4” value (CYP3A4 mRNA; 0.01 μM) was −15.5%. The “mRNA Percent positive control, CYP3A4” value (CYP3A4 mRNA; 0.05 μM) was −15.8%, the “mRNA Percent positive control, CYP3A4” value (CYP3A4 mRNA; 0.1 μM) was −18.2% and the “mRNA Percent positive control, CYP3A4” value (CYP3A4 mRNA; 1 μM) was −20.6%. For the same compound, the “mRNA Percent positive control, CYP3A4” value (CYP3A4 mRNA; 10 μM) was −8.57%, the “mRNA Fold increase, CYP1A2” value (CYP1A2 mRNA; 0.01 μM) was 2.84 fold and the “mRNA Fold increase, CYP1A2” value (CYP1A2 mRNA; 0.05 μM) was 4.98 fold. The “mRNA Fold increase, CYP1A2” value (CYP1A2 mRNA; 0.1 μM) was 7.20 fold, the “mRNA Fold increase, CYP1A2” value (CYP1A2 mRNA; 1 μM) was 13.1 fold and the “mRNA Fold increase, CYP1A2” value (CYP1A2 mRNA; 10 μM) was 24.3 fold. For the same compound, the “mRNA Percent positive control, CYP1A2” value (CYP1A2 mRNA; 0.01 μM) was 24.2%, the “mRNA Percent positive control, CYP1A2” value (CYP1A2 mRNA; 0.05 μM) was 52.5% and the “mRNA Percent positive control, CYP1A2” value (CYP1A2 mRNA; 0.1 μM) was 81.7%. The “mRNA Percent positive control, CYP1A2” value (CYP1A2 mRNA; 1 μM) was 159%, the “mRNA Percent positive control, CYP1A2” value (CYP1A2 mRNA; 10 μM) was 307% and the “Fold Increase, Phenacetin O-dealkylation (CYP1A2) activity” value (shortened to “Fold Increase, Phenacetin O-dealkylation”) (CYP1A2; 0.01 μM) was 7.39 fold. The “Fold Increase, Phenacetin O-dealkylation” value (CYP1A2; 0.05 μM) was 10.54 fold, the “Fold Increase, Phenacetin O-dealkylation” value (CYP1A2; 0.1 μM) was 16.12 fold and the “Fold Increase, Phenacetin O-dealkylation” value (CYP1A2; 1 μM) was 30.36 fold. The “Fold Increase, Phenacetin O-dealkylation” value (CYP1A2; 10 μM) was 60.21 fold, the “Enzyme activity, Phenacetin O-dealkylation (CYP1A2)” value (“Enzyme activity … (CYP1A2)” below) (CYP1A2; 0.01 μM) was 22.1 ± 2.7 pmol/mg protein/min and the “Percent positive control, Phenacetin O-dealkylation (CYP1A2) activity” value (“Percent positive control … (CYP1A2) activity” below) (CYP1A2; 0.01 μM) was 23.3%. For the same compound, the “Enzyme activity … (CYP1A2)” value (CYP1A2; 0.05 μM) was 31.6 ± 2.6 pmol/mg protein/min, the “Percent positive control … (CYP1A2) activity” value (CYP1A2; 0.05 μM) was 34.9% and the “Enzyme activity … (CYP1A2)” value (CYP1A2; 0.1 μM) was 48.2 ± 2.4 pmol/mg protein/min. For the same compound, the “Percent positive control … (CYP1A2) activity” value (CYP1A2; 0.1 μM) was 55.2%, the “Enzyme activity … (CYP1A2)” value (CYP1A2; 1 μM) was 90.8 ± 11.5 pmol/mg protein/min and the “Percent positive control … (CYP1A2) activity” value (CYP1A2; 1 μM) was 107%. For the same compound, the “Enzyme activity … (CYP1A2)” value (CYP1A2; 10 μM) was 180 ± 8 pmol/mg protein/min, the “Percent positive control … (CYP1A2) activity” value (CYP1A2; 10 μM) was 216% and the “Fold Increase, Midazolam 1′-hydroxylation (CYP3A4/5) activity” value (from here on “Fold Increase … (CYP3A4/5) activity”) (CYP3A4/5; 0.01 μM) was 0.91 fold. The “Fold Increase … (CYP3A4/5) activity” value (CYP3A4/5; 0.05 μM) was 0.77 fold, the “Fold Increase … (CYP3A4/5) activity” value (CYP3A4/5; 0.1 μM) was 0.72 fold and the “Fold Increase … (CYP3A4/5) activity” value (CYP3A4/5; 1 μM) was 0.56 fold. The “Fold Increase … (CYP3A4/5) activity” value (CYP3A4/5; 10 μM) was 0.51 fold, the “Enzyme activity, Midazolam 1′-hydroxylation (CYP3A4/5)” value (from here on “Enzyme activity … (CYP3A4/5)”) (CYP3A4/5; 0.01 μM) was 0.179 ± 0.006 pmol/mg protein/min and the “Percent positive control, Midazolam 1′-hydroxylation (CYP3A4/5) activity” value (shortened to “Percent positive control … (CYP3A4/5) activity”) (CYP3A4/5; 0.01 μM) was −2.24%. For the same compound, the “Enzyme activity … (CYP3A4/5)” value (CYP3A4/5; 0.05 μM) was 0.151 ± 0.009 pmol/mg protein/min, the “Percent positive control … (CYP3A4/5) activity” value (CYP3A4/5; 0.05 μM) was −5.94% and the “Enzyme activity … (CYP3A4/5)” value (CYP3A4/5; 0.1 μM) was 0.140 ± 0.010 pmol/mg protein/min. The “Percent positive control … (CYP3A4/5) activity” value (CYP3A4/5; 0.1 μM) was −7.46%, the “Enzyme activity … (CYP3A4/5)” value (CYP3A4/5; 1 μM) was 0.109 ± 0.010 pmol/mg protein/min and the “Percent positive control … (CYP3A4/5) activity” value (CYP3A4/5; 1 μM) was −11.5%. The “Enzyme activity … (CYP3A4/5)” value (CYP3A4/5; 10 μM) was 0.101 ± 0.003 pmol/mg protein/min and the “Percent positive control … (CYP3A4/5) activity” value (CYP3A4/5; 10 μM) was −12.7%.
